{
  "source": "patent US9353156B2",
  "about": "“Oligopeptide compounds and uses thereof” (Cytovation AS, priority 2010, dated 2016)",
  "key": {"[1]": {"system": "142 cells, HFF1 cells, 143 carcinoma cells, HOS sarcoma cell line (FIG. 5)", "assay": "LIVE/DEAD kit, fluorescence microscopy of monolayers (FIG. 5, text)", "format": "cell-based", "conditions": "10 μg/ml of peptide", "excerpt": "The LIVE/DEAD® Viability/Cytotoxicity kit employs a fluorescent dye to assess mammalian cell viability. Calcein AM and ethidium homodimer-1 (EthD-1) are found to be optimal dyes for this purpose. […] cells are distinguished from dead cells by the presence of intracellular esterase activity, determined by enzymatic conversion of non-fluorescen calcein AM to intensely fluorescent calcein. Calcein, which is a polyanionic dye, is well retained inside living cells producing an intense uniform green fluorescence. EthD-1 is excluded by intact membranes of viable cells, but it will enter cells with damaged cell membrane and bind to nucleic acids, producing a bright red fluorescence in dead cells. The protocol for using the live/dead kit is supplied by the manufacturer.\nTo quantify the cytotoxic action of Peptide 1, 20 000 cells were placed in 24 well multiwell dishes. […] After 1-3-6 hrs the cellular viability was assessed using the Molecular Probes LIVE/DEAD kit. […]\nThe cells were then observed using an inverted fluorescence microscope (Nikon Eclipse 2000E, Tokyo, Japan) equipped with FITC (green fluorescence) and TRITC (red fluorescence) filter optics. […] The proportion of viable cells (cells with green fluorescence) and the proportion of dead cells (red fluorescence) where then assessed by counting 100 cells. […]"}, "[2]": {"system": "normal human forskin fibroblasts (HFF1)", "conditions": "20 μg/ml, exposure for 90 minutes", "procedure": "MTT is a yellowish solution and is converted to water-insoluble MTT-formazan of dark blue colour by mitochondrial dehydrogenases of living cells. The blue crystals are solubilized with acidifies isopropanol and the intensity is measured colorimetrically at a wavelength of 570 nm (protocol for the MTT assay was used according to the manufacturer's instructions). Using a MTT cell viability assay, a comparison was made between normal human forskin fibroblasts (HFF1) and three cancer cell lines T986 (neuroblastoma cells), GaMG (glioblastoma), and A172 (glioblastoma)."}},
  "data": [
    {"substance": "Ac-YGRKKRRQRRRGKTLRVAKAIYKRYIE-NH2 [Peptide 1]", "values": [
      {"measurement": "cytotoxic action (red cells)", "setting": "[1]", "result": "slight cytotoxic action"},
      {"measurement": "surviving fraction", "setting": "[2]", "result": 58, "unit": "%"}
    ]}
  ]
}
